# Source: patent US5362634A, “Process for producing A83543 compounds” (DowElanco, priority 1991, dated 1994)
# Where two headings read alike, the source gives them in different places.
# Experiments:
# [1] = system: adult BW (boll weevil); test: Topical test against adult BW; format: in vivo; conditions: Anthonomus grandis, 72 h, 3 days
# Experimental: (§1) Each test compound was formulated by dissolving the compound in an acetone/alcohol (1:1) mixture containing 23 g of "Toximul R" (sulfonate/nonionic emulsifier blend) and 13 g of "Toximul S" (sulfonate/nonionic emulsifier blend) per liter. These mixtures were then diluted with water to give the indicated concentrations.
# (§2) Additional insects were evaluated using similar formulations and evaluation procedures, with the exceptions noted.
# After standard exposure periods, percent mortality was evaluated. The following abbreviations are used:
# ^a One replicate; observed 3 days after treatment
# ^b Formulated A83543A (1 mL) poured over adult insects in a Petri
# [2] = system: CRW (Southern corn rootworm); test: Greenhouse test against CRW; format: in vivo, Diabrotica undecimpunctata howardi
# Experimental: as §1, §2
# (§3) After standard exposure periods, percent mortality was evaluated.
# [3] = system: SAW (Southern armyworm); test: Greenhouse test against SAW; format: in vivo; conditions: Spodoptera eridania, squash
# Experimental: as §1
# Two-spotted spider mites (Tetranychus urticae Koch) and cotton or melon aphids (Aphis gossypii Glover) were introduced on squash cotyledons and allowed to establish on both leaf surfaces. Other plants in the same treatment pot were left uninfested. The leaves were then sprayed with 5 mL of test solution using a DeVilbiss atomizing sprayer at 10 psi. Both surfaces of the leaves were covered until runoff and then allowed to dry for one hour. Two uninfested leaves were then excised and placed into a Petri dish containing Southern armyworm (Spodoptera eridania Cramer).
# as §3
# [4] = system: adult stable fly; test: In vitro efficacy against adult stable fly; conditions: Stomoxys calcitrans
# Text: Tables XIX-XXI summarize in vitro studies with A83543A and A83543D.
# [5] = system: adult stable fly (ASF); test: In vitro efficacy, exposure of ASF to chemically added serum samples; conditions: Stomoxys calcitrans, read-out: Percent insect mortality
# Text: ^1 Percent insect mortality following 24 to 48 hrs. in vitro exposure
# to chemically added serum samples
# [6] = Anthelmintic activity in sheep; format: in vivo
# [7] = system: Nematospiroides dubius; test: Anthelmintic activity in mice experimentally infected with Nematospiroides dubius; format: in vivo; conditions: single oral gavage at 500 mg/kg
# [8] = system: SAW (Southern armyworm); test: Greenhouse test against SAW; format: in vivo; conditions: Spodoptera eridania, bushbean
smiles,measurement,setting,value
CC[C@H]1CCC[C@H](O[C@H]2CC[C@H](N(C)C)[C@@H](C)O2)[C@@H](C)C(=O)C2=C[C@@H]3[C@@H](C=C[C@@H]4C[C@@H](O[C@@H]5O[C@@H](C)[C@H](OC)[C@@H](OC)[C@H]5OC)C[C@@H]34)[C@@H]2CC(=O)O1 [A83543A],inhibition at 1 ppm,[1]; 1.00 ppm,0%
same,inhibition at 5 ppm,[1]; 5.00 ppm,20%
same,inhibition at 10 ppm,[1]; 10.00 ppm,20%
same,inhibition at 50 ppm,[1]; 50.00 ppm,100%
same,inhibition at 100 ppm,[1]; 100.0 ppm,100%
same,inhibition at 3 ppm,"[2]; 3 ppm, second series",0%
same,inhibition at 3.75 ppm,[2]; 3.75 ppm,0%
same,inhibition at 6 ppm,"[2]; 6 ppm, second series",30%
same,inhibition at 7.5 ppm,[2]; 7.5 ppm,10%
same,inhibition at 15 ppm,[2]; 15 ppm,50%
same,inhibition at 30 ppm,[2]; 30 ppm,100%
same,inhibition at 1.9 ppm,[3]; 1.9 ppm,0%
same,inhibition at 3.9 ppm,[3]; 3.9 ppm,20%
same,inhibition at 7.8 ppm,[3]; 7.8 ppm,20%
same,inhibition at 15.63 ppm,[3]; 15.63 ppm,40%
same,inhibition at 31.25 ppm,[3]; 31.25 ppm,55%
same,inhibition at 62.5 ppm,[3]; 62.5 ppm,100%
same,inhibition at 125 ppm,[3]; 125 ppm,100%
same,inhibition at 250 ppm,[3]; 250 ppm,100%
same,mortality at 0.5 ppm,[4]; 24 hour,0%
same,mortality at 0.5 ppm,[4]; 48 hour,10%
same,mortality at 1 ppm,[4]; 24 hour,10%
same,mortality at 1 ppm,[4]; 48 hour,60%
same,mortality at 2 ppm,[4]; 24 hour,70%
same,mortality at 2 ppm,[4]; 48 hour,90%
same,mortality at 5 ppm,[4]; 24 hour,80%
same,mortality at 5 ppm,[4]; 48 hour,100%
same,mortality at 10 ppm,[4]; 24 hour,100%
same,mortality at 10 ppm,[4]; 48 hour,90%
same,mortality at 25 ppm,[4]; 24 hour,100%
same,mortality at 25 ppm,[4]; 48 hour,100%
same,mortality at 50 ppm,[4]; 24 hour,100%
same,mortality at 50 ppm,[4]; 48 hour,100%
same,mortality at 100 ppm,[4]; 24 hour,100%
same,mortality at 100 ppm,[4]; 48 hour,100%
same,mortality at 0.312 ppm,[5]; 24 hr,0%
same,mortality at 0.312 ppm,[5]; 48 hr,50%
same,mortality at 0.625 ppm,[5]; 24 hr,0%
same,mortality at 0.625 ppm,[5]; 48 hr,70%
same,mortality at 1.25 ppm,[5]; 24 hr,20%
same,mortality at 1.25 ppm,[5]; 48 hr,100%
same,mortality at 2.5 ppm,[5]; 24 hr,30%
same,mortality at 2.5 ppm,[5]; 48 hr,100%
same,mortality at 5 ppm,[5]; 24 hr,50%
same,mortality at 5 ppm,[5]; 48 hr,100%
same,mortality at 10 ppm,[5]; 24 hr,80%
same,mortality at 10 ppm,[5]; 48 hr,100%
same,anthelmintic activity,[6]; single intraperitoneal dose of 50 mg/kg,did not show anthelmintic activity
same,anthelmintic activity,[6]; single intraruminal dose of 50 mg/kg,did not show anthelmintic activity
same,anthelmintic activity,[7],did not show anthelmintic activity
same,inhibition at 12.5 ppm,[8]; 12.5 ppm,0%
same,inhibition at 25 ppm,[8]; 25 ppm,40%
same,inhibition at 50 ppm,[8]; 50 ppm,80%
same,inhibition at 100 ppm,[8]; 100 ppm,100%
